Measurements reported in publication PMC5007466, “VCP recruitment to mitochondria causes mitophagy impairment and neurodegeneration in models of Huntington's disease” (Nature Communications, 2016).

Columns and labels:
[1] = test system: HdhQ111 / HdhQ7 mouse striatal cells; experiment: LDH release (cell death) after serum withdrawal; format: cell-based
Method: HdhQ7 and Q111 mouse striatal cells were treated with the HV-3 peptide or the control peptide TAT (3 μM, each) in an FBS-free DMEM medium or in DMEM containing 10% serum for 24 h. Medium from the cultured cells was harvested. Proteins from the medium were purified using Amicon Ultra 0.5 ml centrifugal filters (Millipore). HMGB1 release into the medium was then analysed by Western blotting with anti-HMGB1 antibody. In parallel, cell death was determined by measuring LDH release into the culture medium, using LDH-Cytotoxicity Assay Kit II (Roche, USA) by following the manufacturer's instruction.

[2] = test system: HD mouse striatal cells; experiment: ER stress response (GRP78 western blot); format: cell-based; details: thapsigargin 1 μM or tunicamycin 10 μg/ml, 16 h, with HV-3 3 µM
Method: mouse striatal cells were treated with thapsigargin (1μM) or tunicamycin (10μ g/ml) for 16 hours i n the presence or absence of HV -3 (3 µM). GRP78 total protein levels were determined by western blot analysis. Representative blots of three independent experiments are shown. Actin was used here as a loading control. (b) Tw e n t y -four hours of serum starvation was performed in HD mouse striatal cells.
Caspase-3 activity analysis was performed in the indicated groups. Data are mean ± SEM of three independent experiments. (c) Flag-VCP and GFP-LC3B were co-transfected into HdhQ7 striatal cells.
Total lysates were isolated after 36 hours of transfection. The GFP -LC3B levels were examined by western blot analysis. Actin was used as a loading control. Histogram: quantitation of GFP-LC3B total protein level. Data are mean ± SEM of three independent experiments.
(1 picture or pasted object on this page, not shown here)

[3] = test system: HD patient-iPS cell derived neurons; experiment: Neurite length of DARPP-32/Tuj1-positive medium spiny neurons; format: cell-based, human; details: DARPP-32/Tuj1-positive neurons, 1 μM per day for 5 days versus TAT
Method: iPS cells from a normal subject and a HD patient (carrying 41 CAG repeats) were differentiated into neurons using the protocol from our previous studies. Briefly, iPS cells were plated onto 6-well plates precoated with 2.5% Matrigel and allowed to reach 90% confluence in feeder-free medium. For the first 10 days, cells were treated with SB431542 (10 μM; Tocris Bioscience) and Noggin (100 ng/ml) in Neural Media (NM) containing Neurobasal and DMEM (1:1), B27 supplement minus vitamin A (50 × , Invitrogen), N2 supplement (100 × , Invitrogen), GlutaMax (Invitrogen, 100 × ), FGF2 ([…]) and EGF ([…]), 100 units per ml penicillin and 100 μg ml^−1 streptomycin). For the next 10 days, cells were treated with human recombinant Sonic hedgehog (SHH, 200 ng/ml), DKK1 (100 ng/ml) and BDNF (20 ng/ml) and 10 μM Y27632 (Sigma) in neuronal differentiation medium containing Neurobasal and DMEM (1:3), B27, N2, GlutaMax and PS. […]
In patient-iPS cell-derived neurons, to ensure the observation of mitochondria in the medium spiny neurons, the cells were stained with a mitochondrial marker (anti-TOM20, 1:500) and markers for medium spiny neurons (DARPP-32, 1:200, Epitomics). The quantitation of neurite length was conducted only in the neurons immunopositive for both DARPP-32 and Tuj1 (neuron-specific class III beta-tubulin, 1:5,000, Covance). At least 50 neurons/group were counted.

[4] = test system: HD patient-iPS cell derived neurons; experiment: LDH release after BDNF withdrawal; format: cell-based, human; details: 1 μM per day for 5 days, BDNF withdrawal 24 h
Method: Figure 4 HV-3 treatment reduces mitochondrial damage and cell death in HD cell cultures. Mouse HdhQ7 and HdhQ111 striatal cells were treated with control peptide TAT or peptide HV-3 (3 uM/day for 3 days). (a) Left panel: Mitochondrial membrane potential (MMP) was determined by TMRM fluorescent dye. Right panel: HdhQ111 cells were transfected with control siRNA (siCon) and VCP siRNA (siVCP) for three days. The MMP was determined by TMRM in HdhQ111 cells treated with TAT or HV-3. (b) Mitochondrial morphology was determined by staining cells with anti-Tom20 antibody. Scale bar: 10 μm. The percentage of cells with fragmented mitochondria relative to the total number of cells was quantitated. At least 100 cells per group were counted. (c) Mitochondrial morphology was determined by EM. The length of mitochondria and the number of mitophagosomes were quantitated. At least 90 mitochondria per group were counted. […] HMGB1 release into culture medium was determined by IB analysis with anti-HMGB1 antibody. […] Cell death was determined by the release of LDH. […] (g) Quantitation of neurite length of medium spiny neurons. At least 50 neurons per group were counted by an observer blind to experimental conditions. (h) Left: the MMP was determined by TMRM fluorescent dye. […] Mitochondrial length along neurites of DARPP32/Tuj1-positive neurons was quantitated. […]

CSCC[C@H](NC(=O)[C@@H](NC(=O)[C@H](CC(C)C)NC(=O)[C@@H](NC(=O)[C@H](Cc1c[nH]cn1)NC(=O)CCCCCNC(=O)[C@H](CCCNC(=N)N)NC(=O)[C@H](CCCNC(=N)N)NC(=O)[C@H](CCCNC(=N)N)NC(=O)[C@H](CCC(N)=O)NC(=O)[C@H](CCCNC(=N)N)NC(=O)[C@H](CCCNC(=N)N)NC(=O)[C@H](CCCCN)NC(=O)[C@H](CCCCN)NC(=O)[C@H](CCCNC(=N)N)NC(=O)CNC(=O)[C@@H](N)Cc1ccc(O)cc1)C(C)C)C(C)C)C(=O)N[C@@H](CS)C(=O)N[C@@H](C)C(=O)N[C@H](C(N)=O)[C@@H](C)O [HV-3]
LDH release ([1]; HdhQ111 cells, 24 h serum withdrawal, 3 μM): reduced the release of high mobility group box 1 (HMGB1) and lactate dehydrogenase (LDH) | cell survival rate, wt ([1]; wt counterparts of the HD models): only minor effects | ER stress response (GRP78) [2]: no effect on the ER stress response | neurite shortening [3]: reduced neurite shortening | neuronal cell death [4]: suppressed neuronal cell death
